No end group written: not given here.

Test [1] has as its system metastatic SUM-52 PE breast cancer cells. Description: SU-ECM invasion assay, SUM-52 PE cells. It is filed as cell-based, human. Particulars: PHSRN sequence of fibronectin alone; Example 4. The protocol: Adult Strongylocentrotus purpuratus sea urchins were obtained from Pacific BioMarine, and their embryos were cultured to the early pluteus stage in artificial sea water at 15°C. SU-ECM were prepared from them by treatment with nonionic detergent and sterilized by dilution in the appropriate media.
Cells were harvested by rinsing in Hanks balanced salt solution, followed by brief treatment with 0.25% trypsin, 0.02% EDTA, and pelleting and resuspension in the appropriate medium with or without 5% FCS at a density of about 50,000 cells per ml. When appropriate, purified bovine plasma fibronectin (Sigma, St. Louis, Mo), purified 120 kDa chymotryptic fragment (Gibco BRL), PHSRN or PHSCN peptides (synthesized at the Biomedical Research Core Facilities of the University of Michigan), or GRGDSP or GRGESP peptides (Gibco BRL) were added to the resuspended cells prior to placement of the cells on SU-ECM. In each well of a plate used for an invasion assay, SU-ECM were placed in 0.5 ml of the appropriate medium, and 0.5ml of the resuspended cells dropped on their exterior surfaces. Invasion assays were incubated 1 to 16 hours prior to scoring. If some circumstances, invasion assays were fixed in phosphate-buffered saline (PBS) with 2% formaldehyde for 5 minutes at room temperature, then rinsed into PBS.
(§1) Invasion assays were coded and scored blindly by microscopic examination under phase contrast at 200- and 400-fold magnification. Each cell contacting an SU-ECM was scored for its position relative to the exterior or interior surfaces. A cell was judged to have invaded if it was located on an interior surface below the focal plane passing through the upper surface of the SU-ECM, but above the focal plane passing through its lower surface. The minimum viability of the cells in each assay was always ascertained at the time of assay by determining the fraction of spread, adherent cells on the bottom of each well scored.
An invasion frequency is defined as the fraction of cells in contact with basement membranes which were located in their interiors at the time of assay. Thus, an invasion frequency of 1 denotes invasion by 100% of the cells in contact with basement membranes. Invasion frequencies were determined multiple times for each cell type assayed. For each type of cell assayed the mean and standard deviation of the invasion frequencies were calculated.
The method of Example 4 is employed, with the addition of varying concentrations of the PHSCN peptide.
Thus, the procedure in Example 4 provides a method for determining the inhibitory potential of the PHSCN peptide by comparing the number of cell invasions in the presence of the PHSCN peptide, with the number of cell invasions in the absence of the PHSCN peptide.

The next test concerns neonatal fibroblasts. Put plainly: SU-ECM invasion assay, neonatal fibroblasts. It is filed as cell-based, human.
Text: In one example cells for the invasion assay are harvested by rinsing in Hanks' balanced salt solution, followed by brief treatment with 0.25% trypsin, 0.02% EDTA, and pelleting and resuspension in the appropriate medium with or without 5% FCS at a density of about 50,000 cells per ml. When appropriate, purified bovine plasma fibronectin (from Sigma, St. Louis, Mo), purified 120 kDa chymotryptic fragment (Gibco BRL) or PHSRN peptides (synthesized at the Biomedical Research Core Facilities of the University of Michigan) are added to the resuspended cells prior to placement of the cells on SU-ECM. In each well of a plate used for an invasion assay, SU-ECM were placed in 0.5 ml of the appropriate medium, and 0.5ml of the resuspended cells dropped on their exterior surfaces. Invasion assays were incubated 1 to 16 hours prior to assay. If some circumstances, invasion assays were fixed in phosphate-buffered saline (PBS) with 2% formaldehyde for 5 minutes at room temperature, then rinsed into PBS.
as §1, with “are” for “were”, “is” for “was”
An invasion frequency is defined as the fraction of cells in contact with basement membranes which are located in their interiors at the time of assay. Thus, an invasion frequency of 1 denotes invasion by 100% of the cells in contact with basement membranes. Invasion frequencies are determined multiple times for each cell type assayed. For each type of cell assayed the mean and standard deviation of the invasion frequencies were calculated.
In this example, the invasiveness of neonatal fibroblasts into an SU-ECM invasion substrate is considered. Experiments were performed under serum-free conditions, or in medium with 10% fetal calf serum (FCS). Neither serum-free medium nor medium containing serum supported fibroblast invasion. However, consistent with the induction of metalloproteinase gene transcription by the 120 kDa fragment of plasma fibronectin (pFn) containing the cell-binding domain, the 120 kDa fragment induced fibroblast invasion in the presence or in the absence of serum. […]

In the case of PHSRN [PHSRN], in test [1], the “induction of SUM-52 cell invasion of SU-ECM” value is “induced to invade”. Moreover, the “induction of fibroblast invasion of SU-ECM, dose response” value with neonatal fibroblasts (10 to 3000 ng per ml, presence or absence of serum, log-linear, Figure 10) is recorded as “able to induce fibroblast invasion”. The “induction of fibroblast invasion of SU-ECM” value in the test with neonatal fibroblasts (in the presence (10% FCS) or absence of serum, molar concentration equivalent to plasma fibronectin in serum, Figure 9) is given as “contained all the invasion-stimulatory activity”; with neonatal fibroblasts (serum-free SU-ECM), “induced”.

These data come from patent EP1388013B1, “COMPOSITIONS AND METHODS FOR THE USE OF FIBRONECTIN FRAGMENTS IN THE DIAGNOSIS OF CANCER” (THE REGENTS OF THE UNIVERSITY OF MICHIGAN, priority 2001, dated 2002).
